Measurements as given in PMC10211317, “Identification of ARUK2002821 as an isoform-selective PI5P4Kα inhibitor” (RSC Medicinal Chemistry, 2023).

Columns and labels:
Assay in all cases: Premier Screen kinase panel (MRC PPU)
Assay type in all cases: biochemical
TTBK2 = TTBK2 (Homo sapiens, UniProt Q6IQ55); conditions: TTBK2 (Entrez TTBK2), read-out: Residual activity (%)
Protocol: (§1) room temperature with shaking for 30 minutes. The kinase concentration in the eluates was measured by qPCR.
(§2) using ADP-GloTM assay at the MRC PPU International Centre for Kinase Profiling, University of Dundee.
(§3) Conducted by MRC PPU International Centre
(§4) Conducted by MRC PPU International Centre for […]

IKKb = IKKb (Homo sapiens, UniProt O14920); conditions: IKKb (Entrez IKBKB), read-out: Residual activity (%)
Protocol: as §1, §2, §3, §4

CAMK1 = CAMK1 (Homo sapiens, UniProt Q14012); conditions: CAMK1 (Entrez CAMK1), read-out: Residual activity (%)
Protocol: as §1, §2, §3, §4

CDK9-Cyclin T1 = CDK9-Cyclin T1 (Homo sapiens, UniProt P50750); conditions: CDK9-Cyclin T1 (Entrez CDK9 + CCNT1), read-out: Residual activity (%)
Protocol: as §1, §2, §3, §4

DYRK3 = DYRK3 (Homo sapiens, UniProt O43781); conditions: DYRK3 (Entrez DYRK3), read-out: Residual activity (%)
Protocol: as §1, §2, §3, §4

TTK = TTK (Homo sapiens, UniProt P33981); conditions: TTK (Entrez TTK), read-out: Residual activity (%)
Protocol: as §1, §2, §3, §4

CLK2 = CLK2 (Homo sapiens, UniProt P49760); conditions: CLK2 (Entrez CLK2), read-out: Residual activity (%)
Protocol: as §1, §2, §3, §4

BRSK1 = BRSK1 (Homo sapiens, UniProt Q8TDC3); conditions: BRSK1 (Entrez BRSK1), read-out: Residual activity (%)
Protocol: as §1, §2, §3, §4

CK2 = CK2 (Homo sapiens, UniProt P68400); conditions: CK2 (Entrez CSNK2A1), read-out: Residual activity (%)
Protocol: as §1, §2, §3, §4

OSR1 = OSR1 (Homo sapiens, UniProt O95747); conditions: OSR1 (Entrez OXSR1), read-out: Residual activity (%)
Protocol: as §1, §2, §3, §4

EPH-B3 = EPH-B3 (Homo sapiens, UniProt P54753); conditions: EPH-B3 (Entrez EPHB3), read-out: Residual activity (%)
Protocol: as §1, §2, §3, §4

PLK1 = PLK1 (Homo sapiens, UniProt P53350); conditions: PLK1 (Entrez PLK1), read-out: Residual activity (%)
Protocol: as §1, §2, §3, §4

MARK2 = MARK2 (Homo sapiens, UniProt Q7KZI7); conditions: MARK2 (Entrez MARK2), read-out: Residual activity (%)
Protocol: as §1, §2, §3, §4

PAK6 = PAK6 (Homo sapiens, UniProt Q9NQU5); conditions: PAK6 (Entrez PAK6), read-out: Residual activity (%)
Protocol: as §1, §2, §3, §4

MAPKAP-K2 = MAPKAP-K2 (Homo sapiens, UniProt P49137); conditions: MAPKAP-K2 (Entrez MAPKAPK2), read-out: Residual activity (%)
Protocol: as §1, §2, §3, §4

TGFBR1 = TGFBR1 (Homo sapiens, UniProt P36897); conditions: TGFBR1 (Entrez TGFBR1), read-out: Residual activity (%)
Protocol: as §1, §2, §3, §4

CDK2-Cyclin A = CDK2-Cyclin A (Homo sapiens, UniProt P24941); conditions: CDK2-Cyclin A (Entrez CDK2 + CCNA2), read-out: Residual activity (%)
Protocol: as §1, §2, §3, §4

CK1δ = CK1δ (Homo sapiens, UniProt P48730); conditions: CK1δ (Entrez CSNK1G2), read-out: Residual activity (%)
Protocol: as §1, §2, §3, §4

BTK = BTK (Homo sapiens, UniProt Q06187); conditions: BTK (Entrez BTK), read-out: Residual activity (%)
Protocol: as §1, §2, §3, §4

YES1 = YES1 (Homo sapiens, UniProt P07947); conditions: YES1 (Entrez YES1), read-out: Residual activity (%)
Protocol: as §1, §2, §3, §4

MAP4K3 = MAP4K3 (Homo sapiens, UniProt Q8IVH8); conditions: MAP4K3 (Entrez MAP4K3), read-out: Residual activity (%)
Protocol: as §1, §2, §3, §4

ZAP70 = ZAP70 (Homo sapiens, UniProt P43403); conditions: ZAP70 (Entrez ZAP70), read-out: Residual activity (%)
Protocol: as §1, §2, §3, §4

EF2K = EF2K (Homo sapiens, UniProt O00418); conditions: EF2K (Entrez EEF2K), read-out: Residual activity (%)
Protocol: as §1, §2, §3, §4

p38b MAPK = p38b MAPK (Homo sapiens, UniProt Q15759); conditions: p38b MAPK (Entrez MAPK11), read-out: Residual activity (%)
Protocol: as §1, §2, §3, §4

MST2 = MST2 (Homo sapiens, UniProt Q13188); conditions: MST2 (Entrez STK3), read-out: Residual activity (%)
Protocol: as §1, §2, §3, §4

TBK1 = TBK1 (Homo sapiens, UniProt Q9UHD2); conditions: TBK1 (Entrez TBK1), read-out: Residual activity (%)
Protocol: as §1, §2, §3, §4

PAK4 = PAK4 (Homo sapiens, UniProt O96013); conditions: PAK4 (Entrez PAK4), read-out: Residual activity (%)
Protocol: as §1, §2, §3, §4

TLK1 = TLK1 (Homo sapiens, UniProt Q9UKI8); conditions: TLK1 (Entrez TLK1), read-out: Residual activity (%)
Protocol: as §1, §2, §3, §4

Sequence of MST2 (Q13188 whole entry): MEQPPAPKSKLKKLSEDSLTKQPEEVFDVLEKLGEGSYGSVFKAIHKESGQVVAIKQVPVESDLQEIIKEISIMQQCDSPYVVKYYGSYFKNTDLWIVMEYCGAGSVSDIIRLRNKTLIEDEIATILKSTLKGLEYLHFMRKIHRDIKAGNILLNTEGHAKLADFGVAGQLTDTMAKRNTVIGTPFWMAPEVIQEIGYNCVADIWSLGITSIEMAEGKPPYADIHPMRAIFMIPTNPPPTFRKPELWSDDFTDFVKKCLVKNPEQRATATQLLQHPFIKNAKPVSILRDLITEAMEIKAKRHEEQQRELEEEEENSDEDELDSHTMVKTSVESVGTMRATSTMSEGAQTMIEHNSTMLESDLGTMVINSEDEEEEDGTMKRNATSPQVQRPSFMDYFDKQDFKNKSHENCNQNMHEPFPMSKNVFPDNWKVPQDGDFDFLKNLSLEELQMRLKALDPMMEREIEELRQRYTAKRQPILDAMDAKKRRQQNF
Sequence of CK1δ (P48730 whole entry): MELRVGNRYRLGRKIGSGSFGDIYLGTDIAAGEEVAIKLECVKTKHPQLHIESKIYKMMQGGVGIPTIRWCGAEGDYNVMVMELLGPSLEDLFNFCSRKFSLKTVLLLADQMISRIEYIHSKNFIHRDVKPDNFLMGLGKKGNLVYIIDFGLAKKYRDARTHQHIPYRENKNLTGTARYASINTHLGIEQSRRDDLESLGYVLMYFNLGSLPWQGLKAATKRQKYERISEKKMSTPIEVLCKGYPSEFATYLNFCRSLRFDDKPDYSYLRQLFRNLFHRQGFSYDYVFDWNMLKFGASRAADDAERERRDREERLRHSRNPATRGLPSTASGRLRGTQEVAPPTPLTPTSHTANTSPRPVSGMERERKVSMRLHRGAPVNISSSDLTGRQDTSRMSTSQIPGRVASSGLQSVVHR
Sequence of p38b MAPK (Q15759 whole entry): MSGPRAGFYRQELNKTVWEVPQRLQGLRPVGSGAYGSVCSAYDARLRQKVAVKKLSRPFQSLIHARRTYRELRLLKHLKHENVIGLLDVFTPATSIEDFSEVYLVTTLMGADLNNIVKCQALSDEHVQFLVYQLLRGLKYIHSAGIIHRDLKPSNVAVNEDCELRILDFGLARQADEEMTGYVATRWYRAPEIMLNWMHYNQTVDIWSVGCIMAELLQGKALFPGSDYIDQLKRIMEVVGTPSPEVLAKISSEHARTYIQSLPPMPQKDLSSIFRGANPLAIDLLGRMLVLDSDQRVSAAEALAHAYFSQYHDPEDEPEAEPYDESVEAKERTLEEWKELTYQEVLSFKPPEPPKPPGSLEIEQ
Sequence of PAK6 (Q9NQU5 whole entry): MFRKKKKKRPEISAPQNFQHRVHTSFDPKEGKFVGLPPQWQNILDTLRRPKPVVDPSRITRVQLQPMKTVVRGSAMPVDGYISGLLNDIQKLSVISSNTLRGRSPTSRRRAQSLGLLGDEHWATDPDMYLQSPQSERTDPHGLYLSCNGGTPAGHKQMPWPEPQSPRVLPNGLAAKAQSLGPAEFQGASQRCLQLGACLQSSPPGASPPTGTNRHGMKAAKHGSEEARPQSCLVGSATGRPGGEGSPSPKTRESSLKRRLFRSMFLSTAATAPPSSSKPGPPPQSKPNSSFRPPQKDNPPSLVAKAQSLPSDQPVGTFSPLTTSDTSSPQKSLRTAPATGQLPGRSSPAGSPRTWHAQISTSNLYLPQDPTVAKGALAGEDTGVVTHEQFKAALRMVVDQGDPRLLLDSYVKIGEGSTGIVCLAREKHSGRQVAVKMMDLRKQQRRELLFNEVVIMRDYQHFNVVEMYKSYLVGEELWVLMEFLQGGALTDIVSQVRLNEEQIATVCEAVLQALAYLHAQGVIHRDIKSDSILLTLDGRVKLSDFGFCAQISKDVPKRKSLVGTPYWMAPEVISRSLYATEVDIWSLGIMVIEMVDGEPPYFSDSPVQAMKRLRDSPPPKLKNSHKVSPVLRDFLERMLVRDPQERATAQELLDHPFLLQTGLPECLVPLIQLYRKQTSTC
Sequence of TTBK2 (Q6IQ55 whole entry, species assumed): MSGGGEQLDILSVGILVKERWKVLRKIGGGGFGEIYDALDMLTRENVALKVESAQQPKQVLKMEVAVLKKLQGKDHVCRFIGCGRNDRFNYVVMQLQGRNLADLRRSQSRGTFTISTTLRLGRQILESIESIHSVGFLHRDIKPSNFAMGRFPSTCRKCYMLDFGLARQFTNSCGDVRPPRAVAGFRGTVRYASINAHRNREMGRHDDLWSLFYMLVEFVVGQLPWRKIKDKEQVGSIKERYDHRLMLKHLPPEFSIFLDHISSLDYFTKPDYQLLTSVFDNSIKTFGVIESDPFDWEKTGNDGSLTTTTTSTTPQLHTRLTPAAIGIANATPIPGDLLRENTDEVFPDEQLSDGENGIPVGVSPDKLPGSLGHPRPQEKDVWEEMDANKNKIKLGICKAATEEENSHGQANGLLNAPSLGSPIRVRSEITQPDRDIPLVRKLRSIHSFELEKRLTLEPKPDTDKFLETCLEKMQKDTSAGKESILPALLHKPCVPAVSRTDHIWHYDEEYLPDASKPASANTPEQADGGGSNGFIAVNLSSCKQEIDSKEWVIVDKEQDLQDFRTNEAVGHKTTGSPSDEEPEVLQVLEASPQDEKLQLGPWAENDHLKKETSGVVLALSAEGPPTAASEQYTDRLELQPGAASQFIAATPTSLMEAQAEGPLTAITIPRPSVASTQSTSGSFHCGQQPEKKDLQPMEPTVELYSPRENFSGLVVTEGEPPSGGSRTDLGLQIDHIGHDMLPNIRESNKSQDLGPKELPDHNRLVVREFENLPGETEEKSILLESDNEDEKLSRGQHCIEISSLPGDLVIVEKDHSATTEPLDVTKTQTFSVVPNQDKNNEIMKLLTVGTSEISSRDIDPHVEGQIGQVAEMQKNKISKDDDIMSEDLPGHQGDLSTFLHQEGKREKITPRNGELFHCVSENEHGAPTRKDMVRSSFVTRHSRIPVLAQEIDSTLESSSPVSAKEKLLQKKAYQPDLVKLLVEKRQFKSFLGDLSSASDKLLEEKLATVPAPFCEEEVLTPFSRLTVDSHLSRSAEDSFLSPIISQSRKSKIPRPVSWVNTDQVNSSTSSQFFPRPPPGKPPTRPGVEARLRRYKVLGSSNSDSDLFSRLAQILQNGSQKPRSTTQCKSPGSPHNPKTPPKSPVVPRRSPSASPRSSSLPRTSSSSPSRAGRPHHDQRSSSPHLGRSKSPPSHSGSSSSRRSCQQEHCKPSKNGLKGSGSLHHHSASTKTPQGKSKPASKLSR
Sequence of MAP4K3 (Q8IVH8 whole entry): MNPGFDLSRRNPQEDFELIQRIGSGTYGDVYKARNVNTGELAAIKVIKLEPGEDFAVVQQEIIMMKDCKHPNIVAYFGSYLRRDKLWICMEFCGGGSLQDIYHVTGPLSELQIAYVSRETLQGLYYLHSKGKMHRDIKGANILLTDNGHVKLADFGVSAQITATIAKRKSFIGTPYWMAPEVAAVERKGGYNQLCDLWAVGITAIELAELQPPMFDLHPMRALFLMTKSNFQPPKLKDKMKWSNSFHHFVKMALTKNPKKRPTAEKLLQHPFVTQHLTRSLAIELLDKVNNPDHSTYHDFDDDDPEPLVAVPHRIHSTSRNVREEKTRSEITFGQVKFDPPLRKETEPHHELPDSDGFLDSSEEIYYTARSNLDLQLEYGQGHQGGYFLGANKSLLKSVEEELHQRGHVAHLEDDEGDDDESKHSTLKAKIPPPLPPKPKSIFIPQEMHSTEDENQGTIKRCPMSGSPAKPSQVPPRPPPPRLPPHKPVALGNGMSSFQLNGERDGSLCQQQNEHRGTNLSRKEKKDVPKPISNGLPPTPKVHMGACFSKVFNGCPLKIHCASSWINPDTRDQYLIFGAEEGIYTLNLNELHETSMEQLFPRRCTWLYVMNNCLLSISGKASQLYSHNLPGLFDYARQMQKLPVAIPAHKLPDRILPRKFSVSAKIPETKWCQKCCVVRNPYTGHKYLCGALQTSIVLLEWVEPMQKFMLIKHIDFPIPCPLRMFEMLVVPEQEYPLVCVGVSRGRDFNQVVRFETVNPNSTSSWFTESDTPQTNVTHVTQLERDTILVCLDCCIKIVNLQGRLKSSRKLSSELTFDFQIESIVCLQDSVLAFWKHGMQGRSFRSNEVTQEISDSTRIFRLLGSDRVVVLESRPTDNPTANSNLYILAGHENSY
Sequence of YES1 (P07947 whole entry): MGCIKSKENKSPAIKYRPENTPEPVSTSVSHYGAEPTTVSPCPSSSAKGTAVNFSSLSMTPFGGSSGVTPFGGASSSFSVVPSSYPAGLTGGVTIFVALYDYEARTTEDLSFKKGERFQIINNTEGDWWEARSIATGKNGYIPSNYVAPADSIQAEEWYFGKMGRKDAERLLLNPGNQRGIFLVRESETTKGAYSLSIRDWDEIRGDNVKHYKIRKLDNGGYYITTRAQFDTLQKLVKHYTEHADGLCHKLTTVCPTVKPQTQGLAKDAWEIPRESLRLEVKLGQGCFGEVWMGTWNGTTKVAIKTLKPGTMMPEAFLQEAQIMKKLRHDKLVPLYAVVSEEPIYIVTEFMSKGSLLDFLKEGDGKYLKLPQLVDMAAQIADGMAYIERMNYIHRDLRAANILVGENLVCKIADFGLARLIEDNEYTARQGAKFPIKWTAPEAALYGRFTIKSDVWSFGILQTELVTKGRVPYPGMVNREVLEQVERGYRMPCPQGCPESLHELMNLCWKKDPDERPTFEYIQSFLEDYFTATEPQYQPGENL
Sequence of CK2 (P68400 whole entry): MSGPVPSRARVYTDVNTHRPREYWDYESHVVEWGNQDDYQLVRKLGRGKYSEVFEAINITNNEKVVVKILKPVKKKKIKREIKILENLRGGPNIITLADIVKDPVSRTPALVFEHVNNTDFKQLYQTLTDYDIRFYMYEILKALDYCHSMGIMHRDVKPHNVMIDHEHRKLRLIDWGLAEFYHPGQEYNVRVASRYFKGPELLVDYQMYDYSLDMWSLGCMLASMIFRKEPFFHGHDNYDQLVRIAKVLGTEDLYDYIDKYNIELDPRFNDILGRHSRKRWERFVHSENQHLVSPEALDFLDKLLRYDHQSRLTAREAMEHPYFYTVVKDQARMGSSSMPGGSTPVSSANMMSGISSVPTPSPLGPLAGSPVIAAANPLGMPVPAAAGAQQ

COc1ccc(Nc2ncnc3c2ccn3-c2ccc(C)c(C)c2)cc1Cl [compound 36]
remaining activity at 1 µM (TTBK2): 70% | remaining activity at 1 µM (IKKb): 75% | remaining activity at 1 µM (CAMK1): 99% | remaining activity at 1 µM (CDK9-Cyclin T1): 94% | remaining activity at 1 µM (DYRK3): 68% | remaining activity at 1 µM (TTK): 87% | remaining activity at 1 µM (CLK2): 107% | remaining activity at 1 µM (BRSK1): 97% | remaining activity at 1 µM (CK2): 97% | remaining activity at 1 µM (OSR1): 87% | remaining activity at 1 µM (EPH-B3): 79% | remaining activity at 1 µM (PLK1): 90% | remaining activity at 1 µM (MARK2): 127% | remaining activity at 1 µM (PAK6): 90% | remaining activity at 1 µM (MAPKAP-K2): 109% | remaining activity at 1 µM (TGFBR1): 87% | remaining activity at 1 µM (CDK2-Cyclin A): 100% | remaining activity at 1 µM (CK1δ): 92% | remaining activity at 1 µM (BTK): 99% | remaining activity at 1 µM (YES1): 98% | remaining activity at 1 µM (MAP4K3): 92% | remaining activity at 1 µM (ZAP70): 99% | remaining activity at 1 µM (EF2K): 85% | remaining activity at 1 µM (p38b MAPK): 103% | remaining activity at 1 µM (MST2): 86% | remaining activity at 1 µM (TBK1): 92% | remaining activity at 1 µM (PAK4): 78% | remaining activity at 1 µM (TLK1): 96%
